Measurements as given in article PMC3123319, “Insights into the Regulatory Characteristics of the Mycobacterial Dephosphocoenzyme A Kinase: Implications for the Universal CoA Biosynthesis Pathway” (PLoS ONE, 2011).

Molecular target: T1, dephosphocoenzyme A kinase (CoaE) (Mycobacterium tuberculosis, UniProt P9WPA3)
T1 sequence (P9WPA3 1-407): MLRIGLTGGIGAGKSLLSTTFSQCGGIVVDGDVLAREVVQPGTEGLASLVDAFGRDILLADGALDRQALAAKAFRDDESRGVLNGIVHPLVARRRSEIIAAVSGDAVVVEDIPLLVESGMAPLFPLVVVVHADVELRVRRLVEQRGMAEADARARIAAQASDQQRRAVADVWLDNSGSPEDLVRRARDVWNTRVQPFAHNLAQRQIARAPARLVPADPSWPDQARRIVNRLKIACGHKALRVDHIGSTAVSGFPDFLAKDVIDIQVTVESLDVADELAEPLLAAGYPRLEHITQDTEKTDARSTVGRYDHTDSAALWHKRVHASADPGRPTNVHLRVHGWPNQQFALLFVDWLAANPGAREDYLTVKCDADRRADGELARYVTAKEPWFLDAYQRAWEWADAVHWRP
Assay: coupled PK-LDH spectrophotometric assay, Dixon plot; supported by tryptophan fluorescence quenching, SEC and limited proteolysis
Format: biochemical

## Nc1ccn([C@@H]2O[C@H](COP(=O)(O)OP(=O)(O)OP(=O)(O)O)[C@@H](O)[C@H]2O)c(=O)n1 [CTP]
  Ki: 34 µM
